Assay results from PubChem BioAssay AID2305 (GlaxoSmithKline (GSK), 2010).

Test system: P. falciparum 3D7 growth, pLDH absorbance
Assay: blood-stage malaria parasite growth potency – strain 3D7, dose response (AID 2305)

| Structure (SMILES) | IC50 [nM] |
| --- | --- |
| CCOC(=O)c1cn(CC)c2cc(N3CCCCC3)c(F)cc2c1=O | 130 |
| O=C(NCCc1ccc(Cl)c(Cl)c1)[C@@H]1CCCN1C(=O)c1ccc(O)c(-c2ccc(Cl)c(Cl)c2)c1 | 550 |
| c1ccc2c(C3CCN(CCCCOc4ccc5c(c4)CCN(CC4CC4)CC5)CC3)c[nH]c2c1 | 980 |
| O=C(Cn1c(SCc2cccc(F)c2F)cc(=O)c2ccccc21)N(CCN1CCCCC1)Cc1ccc(-c2ccc(C(F)(F)F)cc2)cc1 | 660 |
| CCCCCN1CCC(NS(=O)(=O)c2cccc(C(=O)Nc3cccc(C(F)(F)F)c3)c2)C1 (stereo not drawn) | 830 |
| C=CCn1c(Sc2ccc(C#N)c([N+](=O)[O-])c2)nnc1-c1ccc(OC)cc1 | 800 |
| CN(C)CCCNc1ncnc2c1[nH]c1ccc(Br)cc12 | 320 |
| CC(C)N1CCC(N(Cc2ccc(-c3ccc(C(F)(F)F)cc3)cc2)C(=O)Cn2c(SCc3cccc(F)c3F)cc(=O)c3ccccc32)CC1 | 820 |
| OC1CCCN(Cc2ccc(-c3cccc(-c4nc5ccc(F)cc5[nH]4)c3)cc2)C1 (stereo not drawn) | 870 |
| CC(C)CN(C)c1ncnc2c1nc(-c1cncc(C#N)c1)n2CCNCc1ccccc1 | 1360 |
| S=C(NCC1CCCCC1)NC1CCC(CN2CCC(c3c[nH]c4ccccc34)CC2)CC1 (stereo not drawn) | 1110 |
| O=C(NCc1cccc(C(F)(F)F)c1)C1CCCN(C(=O)c2ccc(O)c(-c3ccc(Cl)c(Cl)c3)c2)C1 (stereo not drawn) | 800 |
| CNS(=O)(=O)Cc1ccc(Nc2nccc(Nc3cccc4c3cnn4C(=O)Nc3ccccc3)n2)cc1 | 960 |
| Oc1ccccc1-c1nc2cccnc2n1CCc1cccc(C(F)(F)F)c1 | 1270 |
| COc1ccc(-c2cccc(NC(=O)c3cccc(C#N)c3)c2)cc1CN1CCCC1 | 750 |
| CCN(CC)CCN(Cc1ccc(-c2ccc(C(F)(F)F)cc2)cc1)C(=O)Cn1c(CCc2ccccc2F)nc(=O)c2ccccc21 | 930 |
| Cc1c(CN2CCC(N3CCC(C(=O)NC4CC4)CC3)CC2)[nH]c2c(Cl)cccc12 | 1190 |
| Nc1nc(N)c2c3c(cnc2n1)CCCC3 | 770 |
| Cc1cccc2[nH]cc(C3CCN(CCC4CCN(C(=O)/C=C/c5ccc(Cl)c(Cl)c5)CC4)CC3)c12 | 1220 |
| CC(C)(C)c1ccc(O)c(CNC2CCCCC2)c1 | 260 |
| CC(C)(C)N1CCC(N(Cc2ccc(-c3ccc(C(F)(F)F)cc3)cc2)C(=O)Cn2c(CCc3cccc(F)c3F)cc(=O)c3ccccc32)CC1 | 790 |
| COc1ccc(NS(=O)(=O)c2cccc(C(=O)Nc3ccc(C(F)(F)F)cc3)c2)cc1N1CCN(CC(C)C)CC1 | 840 |
| N#Cc1ccc2c(c1)CCN(CCC1CCC(NC(=O)/C=C/c3cccc4ccccc34)CC1)CC2 (stereo not drawn) | 730 |

| Structure (SMILES) | IC50 [nM] |
| --- | --- |
| NC(=O)c1ccsc1NC(=O)CNC(c1ccccc1)c1ccc(Cl)cc1 (stereo not drawn) | 260 |
| Cn1ncc2c3c(CCN4CCC(NCc5cc6c(cn5)OCCO6)CC4)c(Cl)cnc3ccc21 | 770 |
| CCCC(=O)NC(NC(=S)Nc1ccc([N+](=O)[O-])cc1)C(Cl)(Cl)Cl (stereo not drawn) | 1030 |
| O=C(NCc1cccc(OC(F)(F)F)c1)c1cnc2c(c1)nc(-c1cnc(-c3ccccc3)[nH]1)n2CCc1cnc[nH]1 | 680 |
| Cc1nc(-c2cccc(Nc3ccnc4cc(-c5nccs5)ccc34)c2)no1 | 320 |
| Cc1cc(C2CCCCN2C)ccc1-c1ccc(C(=O)N2CCc3cc4c(cc32)C2(CCN(C)CC2)CO4)cc1 (stereo not drawn) | 790 |
| COc1ccc(Cl)cc1NC(=O)Nc1cc(C)nc2ccccc12 | 290 |
| O=c1cc(NCCCNCc2ccc(C(F)(F)F)s2)[nH]c2ccccc12 | 200 |
| CCC1CN(S(=O)(=O)c2ccc3c(c2)NC(=O)CC(=O)N3)c2cc(Cl)ccc2O1 (stereo not drawn) | 660 |
| O=C(Nc1cccc(CN2CCCN(Cc3ncc[nH]3)CC2)c1)c1ccc(-c2ccccc2)cc1 | 650 |
| CN1CC=C(C=Cc2c[nH]c3ccccc23)CC1 | 1340 |
| O[C@@H](c1ccccc1)[C@@H]1CN(Cc2ccccc2)CC[C@@]1(O)c1ccccc1 | 850 |
| COc1ccc(-n2ccnc2SCC(=O)Nc2cccc(C(F)(F)F)c2)c(OC)c1 | 220 |
| CN(C)CCN1CCN(Cc2ccc(-c3cccc(-c4nc5ccccc5[nH]4)c3)cc2)CC1 | 200 |
| CCN(CCCN1CCCCC1)c1cc(C)nc(Nc2ccc(C)cc2)n1 | 410 |
| Nc1nc(N)c2c(ccc3c2ccn3CCCF)n1 | 150 |
| COc1ccc(C(=O)Nc2cc(Cl)c3c(c2)C2CCCN2CC3)cc1C(F)(F)F (stereo not drawn) | 750 |
| CCCCNC(=O)c1[nH]c2c(NC(=O)COc3ccccc3)cccc2c1-c1cccc(NC(=O)C(N)CO)c1 (stereo not drawn) | 850 |
| CCOC(=O)CC[C@@H](NC(=O)c1ccc(NCc2ccc3ccc4nc(C)[nH]c(=O)c4c3c2)cc1F)C(=O)N[C@@H](Cc1c[nH]c2ccccc12)C(=O)OCC | 1030 |
| COc1ccc(CC2(c3ccc(F)cc3)N=C(N)N(CCCc3ccc(F)c(F)c3)C2=O)cc1 (stereo not drawn) | 780 |
| CCCCNC(=O)[C@@H](NC(=O)c1ccc(O)c(-c2ccc(Cl)c(Cl)c2)c1)C(C)C | 230 |
| Cc1cc(C2CCN(CCCCNC(=O)c3ccc(-c4ccc(C(F)(F)F)cc4)cc3)CC2)c(C)cc1OCC#N | 1010 |
| C[C@@H](NC(=O)NC(CCN1CCC2(CC1)CN(S(C)(=O)=O)c1ccccc12)c1ccc(Cl)c(Cl)c1)c1ccccc1 (stereo partly drawn) | 900 |

| Structure (SMILES) | IC50 [nM] |
| --- | --- |
| Cn1nc2ccc3ccccc3c2nc1=N | 770 |
| COc1ccc(Nc2nccc(N3CCC(NC(=O)C(C)c4ccc(Cl)cc4)C3)n2)cc1 (stereo not drawn) | 1010 |
| O=S(=O)(/C=C/c1ccccc1)N(Cc1ccc(-c2ccc(CNCCc3ccccc3)cc2)cc1)CC1CCCCN1 (stereo not drawn) | 790 |
| CCOc1cc(C(=O)N[C@@H](Cc2ccccc2)[C@H](O)CNCc2cc(OC)cc(OC)c2)cc(N2CCCC2=O)c1 | 850 |
| CCCc1c(Cl)cc(CNCCCNc2nc3ccncc3[nH]2)cc1Cl | 740 |
| O=c1cc(N2CCCNCC2)c(Cl)nn1Cc1ccc(NS(=O)(=O)c2ccc(Oc3ccccc3)cc2)cc1 | 800 |
| Cc1ccc(CN2CCCN(Cc3cccc(NC(=O)c4ccc(-c5ccccc5)cc4)c3)CC2)cc1C | 1250 |
| Nc1nccc2ccc(OC3CCCCC3)cc12 | 600 |
| CC(C)C[C@@H](/C=N/NC(N)=O)NC(=O)[C@H](CC(C)C)NC(=O)[C@H](CC(C)C)NC(=O)OCc1ccccc1 | 150 |
| O=C(/C=C/c1ccc(Cl)cc1)NCCCCCN1CCCC(C(=O)Nc2cccc(Cl)c2)C1 (stereo not drawn) | 210 |
| Cn1c(Sc2ncnc3sccc23)nc2ccccc21 | 190 |
| N#Cc1ccc2c(c1)CCN(CCC1CCC(NC(=O)c3cc4ccccc4[nH]3)CC1)CC2 (stereo not drawn) | 1010 |
| CCN(Cc1ccccc1)CC(O)c1ccc(Cl)c(Cl)c1 (stereo not drawn) | 180 |
| CCOc1ccc2ccccc2c1CNCCCCCCNCc1c(OCC)ccc2ccccc12 | 580 |
| CCn1ncc2c(N3CCCC3=O)cc(C(=O)N[C@@H](Cc3ccccc3)[C@H](O)CNC(C)(C)c3cccc(C(F)(F)F)c3)cc21 | 150 |
| Clc1ccc(-n2cnc3c(Nc4ccc(Oc5ccccc5)cc4)ncnc32)cc1Cl | 750 |
| COC(=O)c1ccc(CC(C)NCC(O)c2cccc(C(F)(F)F)c2)cc1C (stereo not drawn) | 970 |
| COc1ccc(COc2c(OC)cc(Cc3cnc(N)nc3N)cc2OC)cc1 | 910 |
| O=C(Nc1ccc(N2CCCCC2)c(Cl)c1)c1ncn[nH]1 | 450 |
| COc1ccc2ncc(F)c(CCN3CC[C@@H](CNCc4cc5c(cn4)OCS5)C3)c2n1 | 1160 |
| CC(C)c1ccc(CN2CCCCC(NC(=O)c3cc(-c4ccccc4F)cs3)C2)cc1 (stereo not drawn) | 670 |
| Cc1cc(N(C)C)nc(Nc2ccc(NC(=O)C(C)Oc3ccccc3)cc2)n1 (stereo not drawn) | 950 |
